This assay has as its target T1, Human Factor D (Homo sapiens, UniProt P00746).
T1 construct: purified from human serum; purchased Complement Technology, Inc; host or cells: human serum (natural protein, not recombinant)
The assay can be described thus: Human Factor D Assay. Format: biochemical. Particulars: Table 1; Factor D 80 nM, substrate Z-L-Lys-SBzl; read-out: IC50. The procedure:
Human Factor D (purified from human serum, Complement Technology, Inc.) at 80 nM final concentration is incubated with test compound at various concentrations for 5 minutes at room temperature in 50 mM Tris, 1M NaCl, pH 7.5. A synthetic substrate Z-L-Lys-SBzl and DTNB (Ellman's reagent) are added to final concentrations of 100 μM each. Absorbance at 405 nm (A405) is recorded at 30 second intervals for 30 minutes using a microplate spectrophotometer. IC50 values are calculated by nonlinear regression of complement Factor D reaction rates as a function of test compound concentration.

SMILES strings stand for the structures. Where only a bound is given, the exact number is not on record here.

T1 sequence (P00746 26-253): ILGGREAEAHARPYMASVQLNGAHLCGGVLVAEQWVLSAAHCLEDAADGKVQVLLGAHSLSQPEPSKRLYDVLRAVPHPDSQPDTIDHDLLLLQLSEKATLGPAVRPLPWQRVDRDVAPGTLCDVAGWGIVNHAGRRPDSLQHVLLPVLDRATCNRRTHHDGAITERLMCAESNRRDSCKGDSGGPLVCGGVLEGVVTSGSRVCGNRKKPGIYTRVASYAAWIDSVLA

The IC50 is the concentration at which inhibition is half-maximal. As for `CC(=O)c1cn(CC(=O)N2C[C@H](F)C[C@H]2C(=O)NCc2cccc(Cl)c2F)c2ccc(NC(=O)NC3CC3)cc12` [Compound 1, (2S,4R)-1-(2-(3-acetyl-5-(3-cyclopropylureido)-1H-indol-1-yl)acetyl)-N-(3-chloro-2-fluorobenzyl)-4-fluoropyrrolidine-2-carboxamide], the IC50 is less than 1 µM. For `CC(=O)c1cn(CC(=O)N2C[C@H](F)C[C@H]2C(=O)NCc2cccc(Cl)c2F)c2ccc(NC(=O)NCc3nn[nH]n3)cc12` [Compound 2, (2S,4R)-1-(2-(5-(3-((2H-tetrazol-5-yl)methyl)ureido)-3-acetyl-1H-indol-1-yl)acetyl)-N-(3-chloro-2-fluorobenzyl)-4-fluoropyrrolidine-2-carboxamide] the value was less than 1 µM; for `CC(=O)c1cn(CC(=O)N2[C@@H]3C[C@@H]3C[C@H]2C(=O)NCc2cccc(Cl)c2F)c2ccc(NC(=O)NC3CC3)cc12` [Compound 3, (1R,3S,5R)-2-(2-(3-acetyl-5-(3-cyclopropylureido)-1H-indol-1-yl)acetyl)-N-(3-chloro-2-fluorobenzyl)-2-azabicyclo[3.1.0] hexane-3-carboxamide], less than 1 µM. `CC(=O)c1cn(CC(=O)N2C[C@H](F)C[C@H]2C(=O)NCc2cccc(Cl)c2F)c2ccc(NC(=O)NC3(C)CC3)cc12` [Compound 4, (2S,4R)-1-(2-(3-acetyl-5-(3-(1-methylcyclopropyl)ureido)-1H-indol-1-yl)acetyl)-N-(3-chloro-2-fluorobenzyl)-4-fluoropyrrolidine-2-carboxamide]: the IC50 is less than 1 µM. Turning to `CC(=O)c1cn(CC(=O)N2[C@@H]3C[C@@H]3C[C@H]2C(=O)N[C@H](C)c2cccc(Cl)c2F)c2ccc(NC(=O)NC3CC3)cc12` [Compound 5, (1R,3S,5R)-2-(2-(3-acetyl-5-(3-cyclopropylureido)-1H-indol-1-yl)acetyl)-N-((R)-1-(3-chloro-2-fluorophenyl)ethyl)-2-azabicyclo[3.1.0] hexane-3-carboxamide], the IC50 was less than 1 µM. As for `CC(=O)c1cn(CC(=O)N2C[C@H](F)C[C@H]2C(=O)NCc2cccc(Cl)c2F)c2ccc(NC(=O)NC(C)C)cc12` [Compound 6, (2S,4R)-1-(2-(3-acetyl-5-(3-isopropylureido)-1H-indol-1-yl)acetyl)-N-(3-chloro-2-fluorobenzyl)-4-fluoropyrrolidine-2-carboxamide], the IC50 was less than 1 µM.

In the case of `CC(=O)c1cn(CC(=O)N2C[C@H](F)C[C@H]2C(=O)NCc2cccc(Cl)c2F)c2ccc(NC(=O)NCc3ccon3)cc12` [Compound 7, (2S,4R)-1-(2-(3-acetyl-5-(3-(isoxazol-3-ylmethyl)ureido)-1H-indol-1-yl)acetyl)-N-(3-chloro-2-fluorobenzyl)-4-fluoropyrrolidine-2-carboxamide], the IC50 was less than 1 µM. Consider `CC(=O)c1cn(CC(=O)N2C[C@H](F)C[C@H]2C(=O)NCc2cccc(Cl)c2F)c2ccc(NC(=O)NCc3ncccn3)cc12` [Compound 8, (2S,4R)-1-(2-(3-acetyl-5-(3-(pyrimidin-2-ylmethyl)ureido)-1H-indol-1-yl)acetyl)-N-(3-chloro-2-fluorobenzyl)-4-fluoropyrrolidine-2-carboxamide], for which the IC50 is less than 1 µM.

Take `CC(=O)c1cn(CC(=O)N2C[C@H](F)C[C@H]2C(=O)NCc2cccc(Cl)c2F)c2ccc(NC(=O)N3CCCC3)cc12` [Compound 9, N-(3-acetyl-1-(2-((2S,4R)-2-(3-chloro-2-fluorobenzylcarbamoyl)-4-fluloropyrrolidin-1-yl)-2-oxoethyl)-1H-indol-5-yl)pyrrolidine-1-carboxamide]: the IC50 was less than 1 µM. For the compound `CC(=O)c1cn(CC(=O)N2C[C@H](F)C[C@H]2C(=O)Nc2cccc(OC(F)(F)F)c2F)c2ccc(NC(=O)NC3CC3)cc12` [Compound 10, (2S,4R)-1-(2-(3-acetyl-5-(3-cyclopropylureido)-1H-indol-1-yl)acetyl)-4-fluoro-N-(2-fluoro-3-(trifluoromethoxy)phenyl)pyrrolidine-2-carboxamide], the concentration for half-maximal inhibition (IC50) was less than 1 µM. Regarding `CC(=O)c1cn(CC(=O)N2[C@@H]3C[C@@H]3C[C@H]2C(=O)Nc2cccc(OC(F)(F)F)c2F)c2ccc(NC(=O)NC3CC3)cc12` [Compound 11, (1R,3S,5R)-2-(2-(3-acetyl-5-(3-cyclopropylureido)-1H-indol-1-yl)acetyl)-N-(2-fluoro-3-(trifluoromethoxy)phenyl)-2-azabicyclo[3.1.0] hexane-3-carboxamide], the 50% inhibitory concentration (IC50) was less than 1 µM. For the compound `CC(=O)c1cn(CC(=O)N2[C@@H]3C[C@@H]3C[C@H]2C(=O)NCc2cccc(Cl)c2F)c2ccc(NC(=O)N3CCCC3)cc12` [Compound 12, (1R,3S,5R)-2-(2-(3-acetyl-5-(pyrrolidine-1-carboxamido)-1H-indol-1-yl)acetyl)-N-(3-chloro-2-fluorobenzyl)-2-azabicyclo[3.1.0] hexane-3-carboxamide], the IC50 is less than 1 µM. Consider `CC(=O)c1cn(CC(=O)N2C[C@H](F)C[C@H]2C(=O)NCc2cccc(Cl)c2F)c2ccc(NC(=O)N3CCC(F)(F)C3)cc12` [Compound 13, N-(3-acetyl-1-(2-((2S,4R)-2-(3-chloro-2-fluorobenzylcarbamoyl)-4-fluoropyrrolidin-1-yl)-2-oxoethyl)-1H-indol-5-yl)-3,3-difluoropyrrolidine-1-carboxamide], for which the IC50 is less than 1 µM. In the case of `CC(=O)c1cn(CC(=O)N2C[C@H](F)C[C@H]2C(=O)NCc2cccc(Cl)c2F)c2ccc(NC(=O)OC3CC3)cc12` [Compound 14, cyclopropyl 3-acetyl-1-(2-((2S,4R)-2-(3-chloro-2-fluorobenzylcarbamoyl)-4-fluoropyrrolidin-1-yl)-2-oxoethyl)-1H-indol-5-ylcarbamate], the IC50 is less than 1 µM. As for `CC(=O)c1cn(CC(=O)N2C[C@H](F)C[C@H]2C(=O)NCc2cccc(Cl)c2F)c2ccc(NC(=O)OCC3CC3)cc12` [Compound 15, cyclopropylmethyl 3-acetyl-1-(2-((2S,4R)-2-(3-chloro-2-fluorobenzylcarbamoyl)-4-fluoropyrrolidin-1-yl)-2-oxoethyl)-1H-indol-5-ylcarbamate], the IC50 was less than 1 µM. Take `CC(=O)c1cn(CC(=O)N2C[C@H](F)C[C@H]2C(=O)NCc2cccc(Cl)c2F)c2ccc(NC(=O)N3CCCC(F)(F)C3)cc12` [Compound 16, N-(3-acetyl-1-(2-((2S,4R)-2-(3-chloro-2-fluorobenzylcarbamoyl)-4-fluoropyrrolidin-1-yl)-2-oxoethyl)-1H-indol-5-yl)-3,3-difluoropiperidine-1-carboxamide]: the IC50 is less than 1 µM. As to `CC(=O)c1cn(CC(=O)N2C[C@H](F)C[C@H]2C(=O)Nc2cccc(OC(F)(F)F)c2F)c2ccc(NC(=O)N3CCCC(F)(F)C3)cc12` [Compound 17, N-(3-acetyl-1-(2-((2S,4R)-4-fluoro-2-(2-fluoro-3-(trifluoromethoxy)phenylcarbamoyl)pyrrolidin-1-yl)-2-oxoethyl)-1H-indol-5-yl)-3,3-difluoropiperidine-1-carboxamide], the IC50 is less than 1 µM. For the compound `CC(=O)c1cn(CC(=O)N2C[C@H](F)C[C@H]2C(=O)Nc2cccc(-c3ccccc3Cl)c2F)c2ccc(NC(=O)N3CCCC(F)(F)C3)cc12` [Compound 18, N-(3-acetyl-1-(2-((2S,4R)-2-(2′-chloro-2-fluorobiphenyl-3-ylcarbamoyl)-4-fluoropyrrolidin-1-yl)-2-oxoethyl)-1H-indol-5-yl)-3,3-difluoropiperidine-1-carboxamide], the IC50 was less than 1 µM. Consider `CC(=O)c1cn(CC(=O)N2C[C@H](F)C[C@H]2C(=O)NCc2cccc(Cl)c2F)c2ccc(NC(=O)Nc3ccon3)cc12` [Compound 19, (2S,4R)-1-(2-(3-acetyl-5-(3-isoxazol-3-ylureido)-1H-indol-1-yl)acetyl)-N-(3-chloro-2-fluorobenzyl)-4-fluoropyrrolidine-2-carboxamide], for which the IC50 is less than 1 µM.

Turning to `CC(=O)c1cn(CC(=O)N2C[C@H](F)C[C@H]2C(=O)Nc2cccc(C(F)(F)F)n2)c2ccc(NC(=O)N3CCCC(F)(F)C3)cc12` [Compound 20, N-(3-acetyl-1-(2-((2S,4R)-4-fluoro-2-(6-(trifluoromethyl)pyridin-2-ylcarbamoyl)pyrrolidin-1-yl)-2-oxoethyl)-1H-indol-5-yl)-3,3-difluoropiperidine-1-carboxamide], the IC50 is less than 1 µM. As for `CC(=O)c1cn(CC(=O)N2C[C@H](F)C[C@H]2C(=O)NCc2cccc(Cl)c2F)c2ccc(NC(=O)NCC(F)(F)F)cc12` [Compound 21, (2S,4R)-1-(2-(3-acetyl-5-(3-(2,2,2-trifluoroethyl)ureido)-1H-indol-1-yl)acetyl)-N-(3-chloro-2-fluorobenzyl)-4-fluoropyrrolidine-2-carboxamide], the half-maximal inhibitory concentration (IC50) was less than 1 µM. With `CC(=O)c1cn(CC(=O)N2C[C@H](F)C[C@H]2C(=O)NCc2cccc(Cl)c2F)c2ccc(NC(=O)N3Cc4cncnc4C3)cc12` [Compound 22, N-(3-acetyl-1-(2-((2S,4R)-2-(3-chloro-2-fluorobenzylcarbamoyl)-4-fluoropyrrolidin-1-yl)-2-oxoethyl)-1H-indol-5-yl)-5H-pyrrolo[3,4-d]pyrimidine-6(7H)-carboxamide] the figure was less than 1 µM; with `CC(=O)c1cn(CC(=O)N2C[C@H](F)C[C@H]2C(=O)NCc2cccc(Cl)c2F)c2ccc(NC(=O)Nc3cncnc3)cc12` [Compound 23, (2S,4R)-1-(2-(3-acetyl-5-(3-pyrimidin-5-ylureido)-1H-indol-1-yl)acetyl)-N-(3-chloro-2-fluorobenzyl)-4-fluoropyrrolidine-2-carboxamide], less than 1 µM. For the compound `NC(=O)c1nn(CC(=O)N2C[C@H](F)C[C@H]2C(=O)Nc2cccc(-c3ccccc3Cl)c2F)c2ccc(NC(=O)N3CCCC(F)(F)C3)cc12` [Compound 24, 1-(2-((2S,4R)-2-(2′-chloro-2-fluorobiphenyl-3-ylcarbamoyl)-4-fluoropyrrolidin-1-yl)-2-oxoethyl)-5-(3,3-difluoropiperidine-1-carboxamido)-1H-indazole-3-carboxamide], the IC50 is less than 1 µM.

(Values after patent US10138225B2 (Achillion Pharmaceuticals, Inc., priority 2015, dated 2018).)
